The target in experiment [1] is T1, Isoform A of Ketohexokinase (Peripheral) (Human, UniProt P50053).
T1 sequence (P50053 whole entry): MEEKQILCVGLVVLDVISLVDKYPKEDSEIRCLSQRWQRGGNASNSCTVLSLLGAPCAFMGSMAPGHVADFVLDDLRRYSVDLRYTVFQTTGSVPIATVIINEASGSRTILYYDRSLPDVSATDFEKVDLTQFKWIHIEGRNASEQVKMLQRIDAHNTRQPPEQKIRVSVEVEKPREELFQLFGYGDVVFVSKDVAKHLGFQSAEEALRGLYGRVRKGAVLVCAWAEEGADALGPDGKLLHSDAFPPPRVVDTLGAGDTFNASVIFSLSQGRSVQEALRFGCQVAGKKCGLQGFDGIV
The experiment is described as follows: KHK Biochemical Assay. On the procedure:
(§1) Compounds were tested for KHK enzyme inhibition in a high-throughput 384-well assay format using the ADP-Glo assay (Promega) in buffer consisting of 50 mM Hepes (pH 7.4), 140 mM KCl, 5 mM MgCl2 and 0.01% Triton-X. 0.2 nM. […] Compounds were serially diluted (1:3) in DMSO. […] The plates were incubated at room temperature for 4 hours before adding ADP-Glo reagent to quench the enzyme reaction, followed by incubation at room temperature for 1 hour. The ADP-Glo detection reagent was then added to the plates and luminescence was measured on the Envision plate reader after 1 hour.

The target in the next experiment is T2, Ketohexokinase (Human, UniProt P50053).
T2 sequence (P50053 whole entry): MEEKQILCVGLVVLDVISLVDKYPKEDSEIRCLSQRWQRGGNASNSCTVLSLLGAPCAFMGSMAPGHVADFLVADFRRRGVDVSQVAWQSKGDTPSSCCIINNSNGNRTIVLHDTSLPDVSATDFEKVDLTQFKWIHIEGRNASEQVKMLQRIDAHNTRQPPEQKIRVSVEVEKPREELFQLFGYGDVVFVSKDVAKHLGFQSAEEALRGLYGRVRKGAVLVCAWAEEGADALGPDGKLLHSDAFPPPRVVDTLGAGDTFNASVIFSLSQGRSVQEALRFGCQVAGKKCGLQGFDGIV
The experiment is described as follows: KHK Biochemical Assay. As for the experimental part:
as §1

Structures are written as SMILES.

On to `C[C@H]1[C@H](O)CN1c1nc(-c2ccc3c(c2)COCC32CCC(=O)N2)c2c(n1)C(F)(F)CC2` (stereo partly drawn) [US12410160, Example 639], for which the IC50 in experiment [1] was determined as 15.9 nM; at Ketohexokinase, 1.2 nM.
Consider `COC(=O)N[C@H]1COc2cc(-c3nc(N4C[C@@H](O)[C@@H]4C)nc4c3CCC4(F)F)ccc21` [US12410160, Example 814], for which the IC50 was 71.3 nM in experiment [1] and 1.8 nM at Ketohexokinase.
As to `C[C@H]1CCN1c1nc2c(c(-c3cncn3C)n1)CCC2` [US12410160, Example 341], the IC50 in experiment [1] was found to be 133 nM; against Ketohexokinase, 111 nM.
For `C[C@H]1[C@H](O)CN1c1nc2c(c(-c3ccc(C(C)(C)O)cc3)n1)CCC2` [US12410160, Example 371], the values for the IC50 (in experiment [1]; against Ketohexokinase) were 442 nM and 187 nM, respectively.

The record behind these values is BindingDB's records for patent US12410160 (Gilead Sciences, 2025).
